# In US11987600B2, “Contraceptive use of triterpenoids” (The Regents of the University of California, priority 2017, dated 2024):
# Assays:
# CatSper [1] = assay: Activity of steroids and modified steroids on CatSper activation (method not described); type: cell-based, human; conditions: for effect on CatSper activation: competing with progesterone; for activity relative to progesterone: effect of position 11 versus position 3 modification
# CatSper [2] = assay: Electrophysiology recordings of inward monovalent currents through CatSper (ICatSper) of human sperm; type: cell-based; conditions: for reduction of ICatSper stimulation compared to stimulation with P4 alone: co-application with P4, human spermatozoa; for reduction of ICatSper stimulation compared to stimulation with PregS alone: co-application with PregS
# From the text: 2-AG hydrolysis by monoacyl lipases, such as ABHD2, is required for CatSper activation. The plant triterpenoid pristimerin was reported to inhibit the activity of related monoacylglycerol lipase (MAGL) (9). […] To test this hypothesis, human spermatozoa were stimulated with pristimerin, followed by exposure to either a mixture of pristimerin and P4, or to a mixture of pristimerin and PregS. In these experiments we analyzed inward monovalent currents through CatSper (ICatSper) of human sperm. Electrophysiology recordings were performed as described in (14). […] Compared to stimulation with P4 or PregS alone, the ICatSper stimulation was reduced by 63% (pristimerin and P4) and by 48% (pristimerin and PregS) (7).
# Another pharmacologically active plant triterpenoid, which affects sperm functions when orally administered to rats, is lupeol (8). Lupeol is similar in structure to steroid hormones. […] However, administration of lupeol with P4 or PregS led to an even stronger inhibition of ICatSper than pristimerin. Compared to CatSper stimulation elicited by P4 or PregS alone, CatSper currents were reduced by 71% and 68%, respectively, in combination with P4 or PregS (7).
# human sperm [3] = assay: Sperm hyperactivation: curvilinear velocity (VCL) of human sperm; type: cell-based; conditions: for decrease of VCL compared to sperm treated with PregS alone: capacitated sperm; for change (increase) of VCL / reduction of VCL values in comparison to VCL in the presence of P4: capacitated spermatozoa; for change (increase) of VCL: compound alone; for reduction of VCL values in comparison to VCL in the presence of P4: stimulated with P4 + compound
# From the text: (§1) Pristimerin and lupeol decrease sperm hyperactivation in the presence of P4. Hyperactivated sperm motility is characterized by a highly asymmetrical bending of the sperm tail due to a CatSper-mediated rise in flagellar calcium concentration (15). Curvilinear velocity (VCL) is the average velocity of the sperm head through the sperm trajectory, which increases during capacitation. A CatSper-mediated calcium rise promotes hyperactivation and makes the sperm trajectory less linear, which results in an increase of VCL. Capacitation increases CatSper activity, which results in a higher percentage of sperm with hyperactivated motility. Thus, capacitated spermatozoa tend to have higher VCL values than non-capacitated. Since both P4 and PregS activate CatSper, while pristimerin and lupeol inhibit it, we explored whether VCL values of human sperm are affected in the presence of plant triterpenoids or steroid hormones. As expected, neither of the compounds changed VCL values of non-capacitated sperm cells. […] Stimulating capacitated sperm with PregS in combination with pristimerin or lupeol decreased VCL by 18% and 9%, respectively, compared to sperm, which were treated with PregS alone. […] Since CatSper is not only required for hyperactivation but also for basal motility, we sought to determine whether pristimerin and lupeol also affect sperm motility.
# human sperm [4] = assay: Sperm motility: number/percentage of motile spermatozoa; type: cell-based; conditions: for decrease of percentage of motile sperm: capacitated sperm
# From the text: as §1
# rats = conditions: orally administered to rats; cited from earlier work
# [5] = PregS in combination with compound
molecule,measurement,setting,value
C[C@]12CC[C@H]3[C@@H](CCC4=CC(=O)CC[C@@]43C)[C@@H]1CC[C@@H]2O [testosterone],effect on CatSper activation,CatSper [1],impair CatSper activation
progesterone-3-biotin,activity relative to progesterone,CatSper [1],as active as progesterone
C=C(C)[C@@H]1CC[C@]2(C)CC[C@]3(C)[C@H](CC[C@@H]4[C@@]5(C)CC[C@H](O)C(C)(C)[C@@H]5CC[C@]43C)[C@@H]12 [lupeol],reduction of ICatSper stimulation compared to stimulation with P4 alone,CatSper [2],71%
same,reduction of ICatSper stimulation compared to stimulation with PregS alone,CatSper [2]; human spermatozoa,68%
same,effect on basal ICatSper,"CatSper [2]; compound alone, human spermatozoa",did not affect basal ICatSper
same,decrease of VCL compared to sperm treated with PregS alone,human sperm [3]; [5],9%
same,change (increase) of VCL,human sperm [3],remained unchanged
same,reduction of VCL values in comparison to VCL in the presence of P4,human sperm [3],48%
same,change of VCL values,"human sperm [3]; non-capacitated sperm, PregS in combination with compound",remained unchanged
same,change in number of motile spermatozoa,"human sperm [4]; capacitated and non-capacitated, compound alone",remained unchanged
same,reduction of motile sperm,"human sperm [4]; capacitated or non-capacitated sperm, co-stimulation with PregS",did not result in a significant reduction
same,decrease of percentage of motile sperm,human sperm [4]; P4 co-applied with compound,19%
same,change of percentage of motile sperm,"human sperm [4]; non-capacitated cells, P4 co-applied with compound",did not change
same,antifertility properties,rats,antifertility properties
COC(=O)[C@]1(C)CC[C@]2(C)CC[C@]3(C)C4=CC=C5C(=CC(=O)C(O)=C5C)[C@]4(C)CC[C@@]3(C)[C@@H]2C1 [pristimerin],reduction of ICatSper stimulation compared to stimulation with P4 alone,CatSper [2],63%
same,reduction of ICatSper stimulation compared to stimulation with PregS alone,CatSper [2]; human spermatozoa,48%
same,decrease of VCL compared to sperm treated with PregS alone,human sperm [3]; [5],18%
same,reduction of VCL values in comparison to VCL in the presence of P4,human sperm [3],39%
same,decrease of percentage of motile sperm,human sperm [4]; P4 co-applied with compound,19%
"CC(=O)[C@H]1CC[C@H]2[C@@H]3CCC4=CC(=O)CC[C@]4(C)[C@H]3CC[C@]12C [P4, progesterone, reference compound]",change (increase) of VCL,human sperm [3],12%
estrogen,effect on CatSper activation,CatSper [1],impair CatSper activation
progesterone-3-BSA,activity relative to progesterone,CatSper [1],as active as progesterone
progesterone-11-biotin,activity relative to progesterone,CatSper [1],inactive
"pregnenolone sulfate [PregS, reference compound]",change (increase) of VCL,human sperm [3],remained unchanged
C[C@]12CCC(=O)C=C1CC[C@@H]1[C@@H]2[C@@H](O)C[C@@]2(C)[C@H]1CC[C@]2(O)C(=O)CO [cortisol],effect on CatSper activation,CatSper [1],impair CatSper activation
progesterone-11-BSA,activity relative to progesterone,CatSper [1],inactive
"CC#C[C@]1(O)CC[C@H]2[C@@H]3CCC4=CC(=O)CCC4=C3[C@@H](c3ccc(N(C)C)cc3)C[C@@]21C [RU-486, mifepristione]",activity relative to progesterone,CatSper [1],inactive
